Numbered stars: 1 amine (or outer) side, 2 acyl side, 3 side chain; on linkers, the order of the positions; unused ones are H or OH. Square brackets hold non-standard residues; d marks the D form. Side chains are listed from the residue outwards. Peptide text beside a SMILES is read from it. * marks the point of attachment. C18 diacid = O=C(O)CCCCCCCCCCCCCCCCC(=O)*; γGlu = O=C(O)[C@H](CCC(=O)[*:2])N[*:1]; AEEA = NCCOCCOCC(=O)O; Aib = CC(C)(N)C(=O)O
Tested on: DIO mice
Assay: In vivo test in diet-induced obese (DIO) mice: body weight and blood glucose
Set-up: species or system c57bl/6J mice
Conditions: for Percent BW of baseline at week 5 (mean ± SD): s.c. once daily 5 weeks, co-agonists 5 then 10 nmol/kg, liraglutide 100 nmol/kg
From the text: The purpose of this experiment was to investigate effect of the glucagon-GLP-1R co-agonists from Example 8 and Example 12 on body weight and blood glucose in vivo in DIO mice. Liraglutide (a human GLP-1 analogue marketed by Novo Nordisk NS under the brand name VictozaTM) was included for comparison. Male […]/6J mice obtained from Jackson Lab (USA) were fed a high fat diet (Research Diets D12451, 45% kcal fat) to obtain approximately 50% overweight compared to age-matched lean control mice. The DIO mice are characterized by normoglycemia, insulin resistance and obesity. […] The co-agonists, i.e. the glucagon derivatives, were dissolved in 50 mM Na2HPO4, 145 mM NaCl og 0.05% Tween 80, pH 7.4, while liraglutide was diluted from 6 mg/ml VictozaTM pens in DPBS buffer (Invitrogen) containing 0.5% rat serum albumin. Vehicle treated animals received 50 mM Na2HPO4, 145 mM NaCl og 0.05% Tween 80, pH 7.4. Compounds and vehicle were dosed (1 ml/kg) for 5 weeks s.c. once daily just prior to lights out. For the first half of the study co-agonists were administered at a dose of 5 nmol/kg and for the second half of the study co-agonists were administered at a dose of 10 nmol/kg. For comparison, liraglutide at a dose of 100 nmol/kg, likewise dosed s.c. once daily, was included. Body weight was monitored before dosing, daily during the dosing period. Non-fasted blood glucose was measured on the day of initiation of dosing and weekly during the dosing period, prior to dosing. Blood for measurement of blood glucose was taken from the tail tip capillary and blood glucose was measured using a glucose analyzer (Biosen 5040) based on the glucose oxidase method. The body weight reduction/body weight at the end of the 5 week treatment period and area under the blood glucose curve during the five week treatment period are given in the tables below.

| Compound | Percent BW of baseline at week 5 (mean ± SD) | lowering of body weight in vivo (5 weeks s.c. once daily) |
| --- | --- | --- |
| CC(C)C[C@H](NC(=O)[C@H](CC(C)C)NC(=O)[C@H](Cc1c[nH]c2ccccc12)NC(=O)[C@H](CCC(N)=O)NC(=O)[C@@H](NC(=O)[C@H](Cc1ccccc1)NC(=O)[C@H](CCC(=O)O)NC(=O)[C@H](CCC(N)=O)NC(=O)[C@H](C)NC(=O)[C@H](C)NC(=O)[C@H](CCCCN)NC(=O)[C@H](CO)NC(=O)[C@H](CC(=O)O)NC(=O)[C@H](CC(C)C)NC(=O)[C@H](Cc1ccc(O)cc1)NC(=O)[C@H](CCCCN)NC(=O)[C@H](CO)NC(=O)[C@H](CC(C)C)NC(=O)[C@H](CC(=O)O)NC(=O)[C@H](CO)NC(=O)[C@@H](NC(=O)[C@H](Cc1ccccc1)NC(=O)[C@@H](NC(=O)CNC(=O)[C@H](CCC(N)=O)NC(=O)C(C)(C)NC(=O)[C@@H](N)Cc1c[nH]cn1)[C@@H](C)O)[C@@H](C)O)C(C)C)C(=O)N[C@@H](CC(N)=O)C(=O)N[C@@H](CCCCNC(=O)CC[C@H](NC(=O)CC[C@H](NC(=O)COCCOCCNC(=O)COCCOCCNC(=O)CC[C@H](NC(=O)CCCCCCCCCCCCCCCCC(=O)O)C(=O)O)C(=O)O)C(=O)O)C(N)=O [Example 8, N^ε29-[(4S)-4-carboxy-4-[[(4S)-4-carboxy-4-[[2-[2-[2-[[2-[2-[2-[[(4S)-4-carboxy-4-(17-carboxyheptadecanoylamino)butanoyl]amino]ethoxy]ethoxy]acetyl]amino]ethoxy]ethoxy]acetyl]amino]butanoyl]amino]butanoyl]-[Aib2,Leu10,Lys17,Ala18,Glu21,Leu27,Lys29]-Glucagon amide] (H-H[Aib]QGTFTSDLSKYLDSKAAQEFVQWLLNK([γGlu-γGlu-AEEA-AEEA-γGlu-C18 diacid])-NH2; N-terminus assumed) | 88% ± 8% | – |
| CC(C)C[C@H](NC(=O)[C@H](CC(C)C)NC(=O)[C@H](Cc1c[nH]c2ccccc12)NC(=O)[C@H](CCC(N)=O)NC(=O)[C@@H](NC(=O)[C@H](Cc1ccccc1)NC(=O)[C@H](CCC(=O)O)NC(=O)[C@H](CCCNC(=N)N)NC(=O)[C@H](C)NC(=O)[C@H](CCCNC(=N)N)NC(=O)[C@H](CCCNC(=N)N)NC(=O)[C@H](CO)NC(=O)[C@H](CC(=O)O)NC(=O)[C@H](CC(C)C)NC(=O)[C@H](Cc1ccc(O)cc1)NC(=O)[C@H](CCCCN)NC(=O)[C@H](CO)NC(=O)[C@H](CC(C)C)NC(=O)[C@H](CC(=O)O)NC(=O)[C@H](CO)NC(=O)[C@@H](NC(=O)[C@H](Cc1ccccc1)NC(=O)[C@@H](NC(=O)CNC(=O)[C@H](CCC(N)=O)NC(=O)C(C)(C)NC(=O)[C@@H](N)Cc1c[nH]cn1)[C@@H](C)O)[C@@H](C)O)C(C)C)C(=O)N[C@@H](CC(N)=O)C(=O)N[C@@H](CCCCNC(=O)CC[C@H](NC(=O)CC[C@H](NC(=O)COCCOCCNC(=O)COCCOCCNC(=O)CC[C@H](NC(=O)CCCCCCCCCCCCCCCCC(=O)O)C(=O)O)C(=O)O)C(=O)O)C(N)=O [Example 12, N^ε29-[(4S)-4-carboxy-4-[[(4S)-4-carboxy-4-[[2-[2-[2-[[2-[2-[2-[[(4S)-4-carboxy-4-(17-carboxyheptadecanoylamino)butanoyl]amino]ethoxy]ethoxy]acetyl]amino]ethoxy]ethoxy]acetyl]amino]butanoyl]amino]butanoyl]-[Aib2,Leu10,Arg20,Glu21,Leu27,Lys29]-Glucagon amide] (H-H[Aib]QGTFTSDLSKYLDSRRAREFVQWLLNK([γGlu-γGlu-AEEA-AEEA-γGlu-C18 diacid])-NH2) | 75% ± 8% | tends to be superior to liraglutide alone |

From patent US9474790B2, “Stable, protracted GLP-1/glucagon receptor co-agonists for medical use” (Novo Nordisk A/S, priority 2013, dated 2016)
